# Data as given in patent US6653081B2, “Methods for monitoring antiretroviral therapy and guiding therapeutic decision in the treatment of HIV/AIDS” (ViroLogic, Inc., priority 2000, dated 2003).
# System: RTV-013415
# Test: Phenotypic susceptibility assay, RTV-013415
# Format: cell-based, HIV
# Conditions: patient 013415
# Text: (§1) The resistance test vectors containing a functional luciferase gene cassette were constructed and host cells were transfected with the resistance test vector DNA. The resistant test vectors contained patient-derived reverse transcriptase and protease sequences that were either susceptible or resistant to the antiretroviral agents, such as nucleoside reverse transcriptase inhibitors, (NRTIs) non-nucleoside reverse transcriptase inhibitors […] protease inhibitors. The resistance test vector viral particles produced by transfecting the resistance test vector DNA into host cells, either in the presence or absence of PRIs, were used to infect target host cells grown either in the absence of NRTIs or NNRTIs, or in the presence of increasing concentrations of the drug. The amount of luciferase activity produced in infected target host cells in the presence of varying concentrations of drug was compared to the amount of luciferase produced in infected target host cells in the absence of drug. “Drug resistance” was measured as the amount of drug required to inhibit by 50% the luciferase activity detected in the absence of drug (inhibitory concentration 50%, IC50). The IC50 values were determined by plotting percent drug inhibition vs. log10 drug concentration. Stimulation of viral replication was measured as the percent increase in luciferase activity detected when infection occurs in the presence of drug as compared to in the absence of drug.
# (§2) Host cells were seeded in 10-cm-diameter dishes and were transfected several days after plating with resistance test vector plasmid DNA and the envelope expression vector. Transfections were performed using a calcium-phosphate precipitation procedure. The cell culture media containing the DNA precipitate was replaced with fresh medium, from one to 24 hours, after transfection. Cell culture media containing resistance test vector viral particles was harvested one to four days after transfection and was passed through a […] filter before being used to infect target host cells, or being stored at −80° C. HIV capsid protein (p24) levels in the harvested cell culture media were determined by an EIA method as described by the manufacturer (SAIC; Frederick, Md.). Before infection, target cells (293 and 293/T) were plated in cell culture media. Control infections were performed using cell culture media from mock transfections (no DNA) or transfections containing the resistance test vector plasmid DNA without the envelope expression plasmid. One to three or more days after infection, the media was removed and cell lysis buffer (Promega) was added to each well. Cell lysates were assayed for luciferase activity (FIG. 3). The inhibitory effect of the drug was determined using the following equation:
# (§3) % luciferase inhibition=1−(RLUluc[drug]÷RLUluc)×100
# (§4) where RLUluc [drug] is the Relative Light Unit of luciferase activity in infected cells in the presence of drug, and RLUluc is the Relative Light Unit of luciferase activity in infected cells in the absence of drug. IC50values were obtained from the sigmoidal curves that were generated from the data by plotting the percent inhibition of luciferase activity vs. the log10 drug concentration. The percent luciferase stimulation is the negative of the % inhibition calculated using the formula above.
# A resistance test vector was constructed as described in Example 1 from a virus sample obtained from patient 013415. The prior and current treatment regimens are unknown. Isolation of viral RNA and RT/PCR was used to generate a patient derived segment (PDS) that comprised viral sequences coding for all of PR and aa 1-313 of RT. The PDS were inserted into an indicator gene viral vector to generate a resistance test vector designated RTV-013415. RTV-013415 was then tested in a phenotypic assay to determine accurately and quantitatively the level of susceptibility to a panel of anti-retroviral drugs. […]
row,Structure (SMILES),drug-dependent stimulation of viral replication
1,O=C1Nc2ccc(Cl)cc2[C@@](C#CC2CC2)(C(F)(F)F)O1 [efavirenz],~20%
2,CC(C)Nc1cccnc1N1CCN(C(=O)c2cc3cc(NS(C)(=O)=O)ccc3[nH]2)CC1 [delavirdine],~30%
3,Cc1ccnc2c1NC(=O)c1cccnc1N2C1CC1 [nevirapine],~20%

# Same assay, conditions: patient 013415; V245M with multiple other mutations
row,Structure (SMILES),decrease in susceptibility
1,O=C1Nc2ccc(Cl)cc2[C@@](C#CC2CC2)(C(F)(F)F)O1 [efavirenz],> 450 fold
2,CC(C)Nc1cccnc1N1CCN(C(=O)c2cc3cc(NS(C)(=O)=O)ccc3[nH]2)CC1 [delavirdine],> 250 fold
3,Cc1ccnc2c1NC(=O)c1cccnc1N2C1CC1 [nevirapine],> 600 fold

# System: RTV-1046 and RTV-887
# Test: Phenotypic susceptibility assay, RTV-1046 and RTV-887
# Format: cell-based, HIV
# Conditions: patient ARG-014, weeks 8 and 16; Y181C and M230L present
# Text: (§5) The resistance test vectors containing a functional luciferase gene cassette were constructed and host cells were transfected with the resistance test vector DNA. The resistant test vectors contained patient-derived reverse transcriptase and protease sequences that were either susceptible or resistant to the antiretroviral agents, such as nucleoside reverse transcriptase inhibitors, (NRTIs) non-nucleoside reverse transcriptase inhibitors […] protease inhibitors. The resistance test vector viral particles produced by transfecting the resistance test vector DNA into host cells, either in the presence or absence of PRIs, were used to infect target host cells grown either in the absence of NRTIs or NNRTIs, or in the presence of increasing concentrations of the drug. The amount of luciferase activity produced in infected target host cells in the presence of varying concentrations of drug was compared to the amount of luciferase produced in infected target host cells in the absence of drug. […] The IC50 values were determined by plotting percent drug inhibition vs. log10 drug concentration. Stimulation of viral replication was measured as the percent increase in luciferase activity detected when infection occurs in the presence of drug as compared to in the absence of drug.
# (§6) Host cells were seeded in 10-cm-diameter dishes and were transfected several days after plating with resistance test vector plasmid DNA and the envelope expression vector. […] HIV capsid protein (p24) levels in the harvested cell culture media were determined by an EIA method as described by the manufacturer (SAIC; Frederick, Md.). […] The inhibitory effect of the drug was determined using the following equation: […]
# (§7) where RLUluc [drug] is the Relative Light Unit of luciferase activity in infected cells in the presence of drug, and RLUluc is the Relative Light Unit of luciferase activity in infected cells in the absence of drug. […] The percent luciferase stimulation is the negative of the % inhibition calculated using the formula above. […]
row,Structure (SMILES),decrease in susceptibility
1,O=C1Nc2ccc(Cl)cc2[C@@](C#CC2CC2)(C(F)(F)F)O1 [efavirenz],5 fold
2,CC(C)Nc1cccnc1N1CCN(C(=O)c2cc3cc(NS(C)(=O)=O)ccc3[nH]2)CC1 [delavirdine],> 250 fold
3,Cc1ccnc2c1NC(=O)c1cccnc1N2C1CC1 [nevirapine],> 600 fold

# System: RTV-010835
# Test: Phenotypic susceptibility assay, RTV-010835
# Format: cell-based, HIV
# Conditions: patient CCTG-2165, week 15; K103N and M230L present
# Text: as §5, §6, §7
row,Structure (SMILES),decrease in susceptibility
1,O=C1Nc2ccc(Cl)cc2[C@@](C#CC2CC2)(C(F)(F)F)O1 [efavirenz],270 fold
2,CC(C)Nc1cccnc1N1CCN(C(=O)c2cc3cc(NS(C)(=O)=O)ccc3[nH]2)CC1 [delavirdine],> 250 fold
3,Cc1ccnc2c1NC(=O)c1cccnc1N2C1CC1 [nevirapine],> 600 fold

# System: RTV-K103N
# Test: Phenotypic susceptibility assay, RTV-K103N
# Format: cell-based, HIV-1
# Conditions: site-directed K103N alone
# Text: as §1, §2, §3, §4
# A resistance test vector containing a single mutation, K103N, (RTV-K103N) was constructed and tested in the phenotypic assay described earlier. The results were compared to those determined using a genetically defined resistance test vector that was wild type at positions 103. We determined the pattern of phenotypic susceptibility to the NNRTIs, delavirdine, nevirapine and efavirenz, in RTV-K103N.
Structure (SMILES),drug-dependent stimulation of viral replication,reductions in susceptibility compared to wild type control RTV
O=C1Nc2ccc(Cl)cc2[C@@](C#CC2CC2)(C(F)(F)F)O1 [efavirenz],no drug-dependent stimulation,29 fold
CC(C)Nc1cccnc1N1CCN(C(=O)c2cc3cc(NS(C)(=O)=O)ccc3[nH]2)CC1 [delavirdine],no drug-dependent stimulation,87 fold
Cc1ccnc2c1NC(=O)c1cccnc1N2C1CC1 [nevirapine],no drug-dependent stimulation,67 fold

# System: RTV-V241S
# Test: Phenotypic susceptibility assay, RTV-V241S
# Format: cell-based, HIV-1
# Conditions: site-directed V241S alone
# Text: as §1, §2, §3, §4
# A resistance test vector containing all of the mutations present in RTV-011073 except for the V241S and the T277K was constructed and tested using the phenotypic assay described earlier. The results were compared to those determined using the parent RTV-011073. We determined the pattern of phenotypic susceptibility to the NNRTIs, delavirdine, nevirapine and efavirenz, in the reverted vector RTV-011073/241V/277T. […] A resistance test vector containing all of the mutations present in RTV-011073 except for the V241S was constructed and tested using the phenotypic assay described earlier. The results were compared to those determined using the parent RTV-011073. […]
Structure (SMILES),drug-dependent stimulation of viral replication,reductions in susceptibility compared to wild type control RTV
O=C1Nc2ccc(Cl)cc2[C@@](C#CC2CC2)(C(F)(F)F)O1 [efavirenz],no drug-dependent stimulation,3 fold
CC(C)Nc1cccnc1N1CCN(C(=O)c2cc3cc(NS(C)(=O)=O)ccc3[nH]2)CC1 [delavirdine],~25%,6 fold
Cc1ccnc2c1NC(=O)c1cccnc1N2C1CC1 [nevirapine],~30%,9 fold

# System: RTV-I270S
# Test: Phenotypic susceptibility assay, RTV-I270S
# Format: cell-based, HIV-1
# Conditions: site-directed I270S alone
# Text: as §1, §2, §3, §4
# A resistance test vector containing all of the mutations present in […] except for the I270S (RTV-013522/270I) was constructed and tested using the phenotypic assay described earlier. The results were compared to those determined using the parent RTV-013522. We determined the pattern of phenotypic susceptibility to the NNRTIs, delavirdine, nevirapine and efavirenz, in the reverted vector RTV-013522/270I. […] In this patient sample the correlation of drug-dependent stimulation of viral replication with the mutation at I270S is very striking. […]
Structure (SMILES),drug-dependent stimulation of viral replication,reductions in susceptibility compared to wild type control RTV
O=C1Nc2ccc(Cl)cc2[C@@](C#CC2CC2)(C(F)(F)F)O1 [efavirenz],~40%,4 fold
CC(C)Nc1cccnc1N1CCN(C(=O)c2cc3cc(NS(C)(=O)=O)ccc3[nH]2)CC1 [delavirdine],~60%,13 fold
Cc1ccnc2c1NC(=O)c1cccnc1N2C1CC1 [nevirapine],~60%,15 fold
